Legend:
CHRNA9/CFP and ERBB2/YFP = CHRNA9/CFP and ERBB2/YFP (Homo sapiens, UniProt Q9UGM1)
Source text: In order to further investigate the interaction between CHRNA9 and ERBB2 ex vivo, a plasmid expressing CHRNA9/CFP and a plasmid expressing ERBB2/YFP were constructed and then co-transfected into MDA-MB-231 cells. FRET and fluorescence-lifetime imaging microscopy (FLIM) were used.
To further clarify whether CHRNA9 and ERBB2 are dissociated after nicotine exposure, two-photon FLIM was used to monitor the FRET activity between CHRNA9/CFP and ERBB2/YFP. The plasmids expressing CHRNA9/CFP and the plasmids expressing ERBB2/YFP were co-transfected into MDA-MB-231 cells. After two days, the cells were treated with 10 μM nicotine.

[1] = test system: MDA-MB-231 cells with a luminescence reporter gene; experiment: MDA-MB-231-based spontaneous pulmonary metastasis animal model; assay type: in vivo, SCID mice; details: two months; for number of the migrating tumor cells to the lungs (photon flux): bupropion i.p. three times a week, 100 or 200 μg per kilogram
Method: MDA-MB-231 cells with a luminescence reporter gene were implanted into severe combined immunodeficiency (SCID) mice. The nicotine treatment was carried out by adding nicotine (10 μg/ml) to the drinking water of the mice. The mice were injected intraperitoneally with bupropion three times a week at doses of 100 or 200 μg per kilogram. After two months, the mice were sacrificed and the lungs were dissected. IVIS was used to take the luminescence images of the lungs. The photon influx measured in the images represents the metastasis level of the mouse tumor cells to the lung tissue.

CHRNA9/ERBB2 complex = CHRNA9/ERBB2 complex (Homo sapiens, UniProt Q9UGM1); details: oral nicotine, at 30 minutes of exposure, vs before exposure
Source text: Split luciferase complementation assay was used to investigate the association and dissociation between CHRNA9 and ERBB2.
The N terminal (Nluc) and the C terminal (Cluc) of luciferase were respectively constructed with ERBB2 and CHRNA9 to form the plasmids expressing the fusion proteins. When ERBB2 and CHRNA9 interact with each other, the Nluc and the Cluc are also close to each other to assemble together, and present luciferase activity. Therefore, after Luciferin addition, luminescence can be generated. When ERBB2 and CHRNA9 dissociate from each other, the Nluc and Cluc also dissociate from each other; therefore, no luciferase activity exists.
Then a xenograft animal model was used. Plasmids expressing ERBB2/Nluc fusion protein and plasmids expressing CHRNA9/Cluc fusion protein were co-transfected into MDA-MB-231 cells, then the cells expressing the fusion proteins were injected into the mammary pads of nude mice.

MDA-MB-231 cells [2] = experiment: cell invasion assay (Matrigel invasion chambers); assay type: cell-based, human; details: 48 hours, with or without nicotine
Method: The inhibitory effect of bupropion on tumor invasion was tested by cell invasion assay. MDA-MB-231 cells were plated on to Matrigel invasion chambers in serum-starved medium, and the cells in the lower chamber were cultured using normal medium. The media in both of the upper and the lower chambers contained 0.1 μM bupropion, or 1 μM bupropion, and the cells were treated with or without (control group) nicotine. After the cells were cultured for 48 hours, the upper chambers were washed with PBS and fixed with formaldehyde for 30 minutes. The cells in the upper chambers were stained with crystal violet for two hours, and photos were acquired under a microscope. The numbers of invading tumor cells were calculated by ImageJ software.

MDA-MB-231 cells [3] = experiment: cell migration assay, MDA-MB-231; assay type: cell-based, human; details: 12 hours, with or without nicotine
Method: (§1) MDA-MB-231 cells well treated with or without (control group) nicotine, DMSO, 0.1 μM, and 1 μM bupropion were then respectively added to the cells. Twelve hours after bupropion addition, the cells were fixed with formaldehyde, and stained with PI for 30 minutes; then photos of the cells were acquired. The numbers of migrating cells were calculated by imageJ software. This assay was repeated 3 times.

MDA-MB-453 = experiment: cell migration assay, MDA-MB-453; assay type: cell-based, human
Method: as §1
In addition, a HER2 overexpression subtype of a breast cancer cell line, MDA-MB-453, was used to test the inhibitory effect of bupropion on tumor migration. The experimental method was the same as the cell migration assay of Example 7 above.

CHRNA9/CFP and ERBB2/YFP, sequence (Q9UGM1 23-479): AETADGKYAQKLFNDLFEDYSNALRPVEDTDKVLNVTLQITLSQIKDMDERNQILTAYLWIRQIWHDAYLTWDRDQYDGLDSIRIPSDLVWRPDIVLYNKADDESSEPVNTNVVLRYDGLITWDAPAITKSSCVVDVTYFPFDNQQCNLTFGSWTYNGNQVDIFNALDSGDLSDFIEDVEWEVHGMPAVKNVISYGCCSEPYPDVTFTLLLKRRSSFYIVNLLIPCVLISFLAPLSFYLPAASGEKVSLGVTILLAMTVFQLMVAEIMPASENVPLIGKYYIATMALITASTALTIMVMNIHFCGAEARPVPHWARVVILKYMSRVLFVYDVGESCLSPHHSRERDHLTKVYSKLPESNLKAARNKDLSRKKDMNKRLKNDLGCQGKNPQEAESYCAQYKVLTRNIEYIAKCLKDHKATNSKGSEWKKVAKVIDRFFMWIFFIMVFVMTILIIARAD
CHRNA9/ERBB2 complex, sequence (Q9UGM1 23-479, one chain of several): as the sequence (Q9UGM1 23-479) above

Row | SMILES | FRET activity on the cell membrane between CHRNA9/CFP and ERBB2/YFP (CHRNA9/CFP and ERBB2/YFP; after 10 μM nicotine exposure, MDA-MB-231 cells) | FRET activity on the membrane after removal of nicotine (CHRNA9/CFP and ERBB2/YFP; cells washed with PBS to remove nicotine) | number of the metastatic tumor cells in the lung tissues (photon flux) ([1]; nicotine 10 μg/ml in drinking water) | photon influx (luciferase activity in tumor region) relative to control group (CHRNA9/ERBB2 complex) [%] | invasion of MDA-MB-231 cells (MDA-MB-231 cells [2]; 0.1 μM bupropion) | invasion of MDA-MB-231 cells (MDA-MB-231 cells [2]; 1 μM bupropion) | migration of MDA-MB-231 cells (MDA-MB-231 cells [3]; 0.1 μM bupropion) | migration of MDA-MB-231 cells (MDA-MB-231 cells [3]; 1 μM bupropion) | migration of MDA-MB-453 cells (MDA-MB-453; 0.1 μM bupropion) | migration of MDA-MB-453 cells (MDA-MB-453; 1 μM bupropion) | number of the migrating tumor cells to the lungs (photon flux) ([1]; nicotine-free mice) | number of the migrating tumor cells to the lungs (photon flux) ([1]; nicotine-treated mice)
1 | CN1CCCC1c1cccnc1 (stereo not drawn) [nicotine] | gradually decreased | gradually recovered to the baseline | significantly increased | 26.3 |  |  |  |  |  |  |  | 
2 | CC(NC(C)(C)C)C(=O)c1cccc(Cl)c1 (stereo not drawn) [bupropion] |  |  |  |  | significantly inhibited | significantly inhibited | significantly inhibited | significantly inhibited | significantly inhibited | significantly inhibited | significantly decreased | significantly decreased
